Assay results reported in publication PMC12676205, “New Se‐Compounds With Antileishmanial, Antitumor, and Carbonic Anhydrase Inhibitory Properties” (Archiv Der Pharmazie, 2025).
Read-outs that look alike come from different tables or passages of the source.

Legend:
hCA I = target: T1, hCA I (Homo sapiens, UniProt P00915); experiment: hCA I inhibition, stopped-flow CO2 hydration assay; format: biochemical; conditions: stopped flow technique, mean from three assays
T1 construct: made in house
Procedure: (§7) An Applied Photophysics stopped‐flow instrument was used to assay the CA‐catalyzed CO2 hydration activity [52]. […] The uncatalyzed rates were determined in the same manner and subtracted from the total observed rates. Stock solutions of the inhibitor (0.1 mM) were prepared in distilled–deionized water, and dilutions up to 0.01 nM were done thereafter with the assay buffer. Inhibitor and enzyme solutions were preincubated together for 15 min at room temperature before the assay, to allow for the formation of the E–I complex. The inhibition constants were obtained by Nonlinear least‐squares methods using PRISM 3 and the Cheng‐Prusoff equation as reported earlier and represent the mean from at least three different determinations. All CA isoforms were recombinant proteins obtained in‐house, as reported earlier [54, 55, 56].

hCA II = target: T2, hCA II (Homo sapiens, UniProt P00918); experiment: hCA II inhibition, stopped-flow CO2 hydration assay; format: biochemical; conditions: stopped flow technique, mean from three assays
T2 construct: made in house
Procedure: as §7

hCA IX = target: T3, hCA IX (Homo sapiens, UniProt Q16790); experiment: biochemical; conditions: stopped flow technique, mean from three assays
T3 construct: made in house
Procedure: as §7

hCA XII = target: T4, hCA XII (Homo sapiens, UniProt O43570); experiment: hCA XII inhibition, stopped-flow CO2 hydration assay; format: biochemical; conditions: stopped flow technique, mean from three assays
T4 construct: made in house
Procedure: as §7

Leukemia subpanel [1] = experiment: NCI-60 one-dose screen, leukemia subpanel; format: cell-based, human; conditions: 10 µM, 48 h
Procedure: (§1) To explore the potential antiproliferative properties of the newly synthesized derivatives, they were submitted to the National Cancer Institute's (NCI) Developmental Therapeutics Program (DTP) for screening at 10 μM in a panel of approximately 60 human cancer cell lines from different cancer types. The results are reported as the growth percentage (GP), which is the growth of the treated cells with each compound for 48 h compared to the untreated controls (Figure 2). […] The initial screening results are summarized in Figure 2, and the mean GP values of each subpanel are depicted in Figure 3. The full reports are compiled in the Supplementary Section.
(§2) All the reported selenoesters (1–6) were submitted to the DTP of NCI. First, they were screened at a single dose (10^−5 M) against a panel of 60 cancer cell lines derived from different tumor types following the methodology available (https://dtp.cancer.gov/discovery_development/nci-60/methodology.htm). As all the compounds satisfied the threshold inhibition criteria established, they were further assessed at five concentrations (0.01, 0.1, 1, 10, and 100 µM) against the same cell panel to obtain their corresponding dose–response curves and three antitumor parameters (GI50, TGI, and LC50) by regression. GraphPad Prism 7.0 Software was used to represent the corresponding graphs.

[2] = system: NSCL (non‐small‐cell lung cancer) subpanel; experiment: NCI-60 one-dose screen, NSCL subpanel; format: cell-based, human; conditions: 10 µM, 48 h
Procedure: as §1, §2

Colon subpanel [3] = experiment: NCI-60 one-dose screen, colon subpanel; format: cell-based, human; conditions: 10 µM, 48 h
Procedure: as §1, §2

CNS subpanel [4] = experiment: NCI-60 one-dose screen, CNS subpanel; format: cell-based, human; conditions: 10 µM, 48 h
Procedure: as §1, §2

Melanoma subpanel [5] = experiment: NCI-60 one-dose screen, melanoma subpanel; format: cell-based, human; conditions: 10 µM, 48 h
Procedure: as §1, §2

Ovarian subpanel [6] = experiment: NCI-60 one-dose screen, ovarian subpanel; format: cell-based, human; conditions: 10 µM, 48 h
Procedure: as §1, §2

Renal subpanel [7] = experiment: NCI-60 one-dose screen, renal subpanel; format: cell-based, human; conditions: 10 µM, 48 h
Procedure: as §1, §2

Prostate subpanel [8] = experiment: NCI-60 one-dose screen, prostate subpanel; format: cell-based, human; conditions: 10 µM, 48 h
Procedure: as §1, §2

Breast subpanel [9] = experiment: NCI-60 one-dose screen, breast subpanel; format: cell-based, human; conditions: 10 µM, 48 h
Procedure: as §1, §2

OVCAR‐5 = experiment: NCI-60 one-dose screen, OVCAR-5; format: cell-based, human; conditions: 10 µM, 48 h
Procedure: as §1, §2

Leukemia subpanel [10] = experiment: NCI-60 five-dose assay, leukemia subpanel; format: cell-based; conditions: Homo sapiens, 48 h
Procedure: (§3) All the compounds were selected for further testing since they fulfilled the set NCI one‐dose screening parameters for threshold inhibition. They were tested at five different concentrations (0.01, 0.1, 1, 10, and 100 μM) for 48 h against the same cell line panel and the dose–response curves along with three response parameters (50% growth inhibitory concentration [GI50], the 50% lethal concentration [LC50], and the total growth inhibition [TGI]) were calculated for every cancer cell line. The full reported data and corresponding graphs are compiled in Supporting Information S1. Average values of GI50, TGI, and LC50 values of all the reported selenoesters in all the subpanels are represented in Figure 4.
as §2

[11] = system: NSCL (non‐small‐cell lung cancer) subpanel; experiment: NCI-60 five-dose assay, NSCL subpanel; format: cell-based; conditions: Homo sapiens, 48 h, read-out: Mean GI50 NSCL
Procedure: as §3, §2

Colon subpanel [12] = experiment: NCI-60 five-dose assay, colon subpanel; format: cell-based; conditions: Homo sapiens, 48 h
Procedure: as §3, §2

CNS subpanel [13] = experiment: NCI-60 five-dose assay, CNS subpanel; format: cell-based; conditions: Homo sapiens, 48 h, read-out: Mean GI50 CNS
Procedure: as §3, §2

Melanoma subpanel [14] = experiment: NCI-60 five-dose assay, melanoma subpanel; format: cell-based; conditions: Homo sapiens, 48 h, read-out: Mean GI50 Melanoma
Procedure: as §3, §2

Ovarian subpanel [15] = experiment: NCI-60 five-dose assay, ovarian subpanel; format: cell-based; conditions: Homo sapiens, 48 h, read-out: Mean GI50 Ovarian
Procedure: as §3, §2

Renal subpanel [16] = experiment: NCI-60 five-dose assay, renal subpanel; format: cell-based; conditions: Homo sapiens, 48 h, read-out: Mean GI50 Renal
Procedure: as §3, §2

Prostate subpanel [17] = experiment: NCI-60 five-dose assay, prostate subpanel; format: cell-based, human; conditions: Homo sapiens, 48 h
Procedure: as §3, §2

Breast subpanel [18] = experiment: NCI-60 five-dose assay, breast subpanel; format: cell-based; conditions: Homo sapiens, 48 h, read-out: Mean GI50 Breast
Procedure: as §3, §2

[19] = system: OVCAR‐5 ovarian cancer cells; experiment: NCI-60 five-dose assay, OVCAR-5; format: cell-based, human; conditions: 48 h
Procedure: as §3, §2

L. major promastigotes [20] = experiment: Leishmanicidal activity against promastigotes (MTT), L. major; format: cell-based, Leishmania major; conditions: Leishmania major, 48 h, mean ± SD, read-out: L. major IC50
Procedure: (§4) The synthesized compounds were tested for their antileishmanial activity against promastigotes of L. major and L. infantum at four concentrations (1, 10, 50, and 100 µM) for 48 h using the 3‐(4,5‐dimethylthiazol‐2‐yl)‐2,5‐diphenyltetrazolium bromide (MTT) assay. In this evaluation, the activity was expressed in IC50 (concentration inhibiting the parasite growth by 50%). […] The CC50 was defined as the concentration of selenoesters that led to a reduction in the viability of the macrophages, such that only 50% of the cells survived when compared to the control group. This cell line, derived from the blood of a human with acute monocytic leukemia, was chosen as it has been widely reported that it resembles tissue macrophages to various extents as well as supports the infection by numerous Leishmania promastigotes. The selectivity indexes (SIs) were calculated as the ratio between toxicity on macrophages (THP‐1 cells)/antileishmanial activity. The data for standard control drugs (miltefosine and paromomycin) are included for comparison purposes.
(§5) The promastigotes of L. major (clone VI, MHOM/IL/80/Friendlin) and L. infantum (BCN‐150) were grown at 26°C under continuous shaking in M199 1× medium (Sigma, USA). This media was supplemented with 10% of heat‐inactivated fetal bovine serum (FBS) (Gibco, USA), 0.0005% (w/v) hemin, 0.1 mM adenine, 25 mM HEPES (pH 7.2), 0.0001% (w/v) biotin, and 100 UI/mL penicillin and […] streptomycin (Gibco, USA).
(§6) The antileishmanial activity of the reported selenoesters was determined using the MTT assay as previously described during the logarithmic growth phase of the tested promastigotes of L. major and L. infantum. Briefly, the Leishmania parasites were seeded into 96‐well flat‐bottom plates (3 × 10^5 parasites/100 µL) and treated with four different concentrations ranging between 1 and 100 µM of each selenoester at 26°C for 48 h. Afterwards, 20 µL of MTT (5 mg/mL in PBS) was added to each well and incubated for 4 h under the same conditions. Then, 80 µL/well of DMSO was added to dissolve the resultant formazan crystals. The absorbances were determined on a Multiskan EX photometric plate reader for microplates at 540 nm. Three independent experiments performed in triplicate were carried out for each compound, and OriginPro 8.5.1 Software was used to calculate the IC50 values by fitting the data to a dose–inhibition sigmoid curve.

[21] = system: L. infantum promastigotes; experiment: Leishmanicidal activity against promastigotes (MTT), L. infantum; format: cell-based, Leishmania infantum; conditions: Leishmania infantum, 48 h, mean ± SD, read-out: L. infantum IC50
Procedure: as §4, §5, §6

L. major promastigotes [22] = system: L. major promastigotes; parameters: method as in PMID 37570815, PMID 36364304; conditions: reference drugs; cited from earlier work
[23] = system: L. infantum promastigotes; parameters: method as in PMID 37570815, PMID 36364304; conditions: reference drugs; cited from earlier work
THP‐1 cells = system: THP‐1 cells; parameters: method as in PMID 37570815, PMID 36364304; conditions: reference drugs; cited from earlier work
[24] = system: NCI‐60 human cancer cell lines; parameters: method as in PMID 20442306; conditions: NCI-60 panel; read-out: mean GI50 in the same panel of cell lines; cited from earlier work

T4 sequence (O43570 25-354): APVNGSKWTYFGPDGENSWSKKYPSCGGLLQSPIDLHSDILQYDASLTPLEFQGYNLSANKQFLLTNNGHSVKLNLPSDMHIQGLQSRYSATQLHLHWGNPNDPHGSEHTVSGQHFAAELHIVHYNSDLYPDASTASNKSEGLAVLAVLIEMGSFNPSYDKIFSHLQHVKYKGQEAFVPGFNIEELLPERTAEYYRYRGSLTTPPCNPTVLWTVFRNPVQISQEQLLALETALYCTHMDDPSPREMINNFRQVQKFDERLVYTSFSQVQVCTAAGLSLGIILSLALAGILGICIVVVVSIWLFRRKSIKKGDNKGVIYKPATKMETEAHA
T1 sequence (P00915 whole entry): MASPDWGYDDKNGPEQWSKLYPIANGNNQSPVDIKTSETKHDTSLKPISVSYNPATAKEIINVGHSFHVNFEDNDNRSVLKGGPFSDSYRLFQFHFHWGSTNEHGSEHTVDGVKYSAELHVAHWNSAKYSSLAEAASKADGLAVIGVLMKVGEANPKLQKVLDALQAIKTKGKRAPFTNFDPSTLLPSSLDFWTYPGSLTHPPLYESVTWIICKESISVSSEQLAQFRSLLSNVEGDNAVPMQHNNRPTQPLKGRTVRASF

N#Cc1ccc(NC(=O)C[Se]C(=O)c2ccco2)cc1C(F)(F)F [Compound 4, Se‐(2‐((4‐cyano‐3‐(trifluoromethyl)phenyl)amino)‐2‐oxoethyl)furan‐2‐carboselenoate]
Ki (hCA I): > 100 µM
Ki (hCA II): 93.8 µM
Ki (hCA IX): 19 µM
Ki (hCA XII): 77.1 µM
average growth cell value, Leukemia (Leukemia subpanel [1]): 5.71%
average growth cell value, NSCL [2]: -37.92%
average growth cell value, Colon (Colon subpanel [3]): -19.82%
average growth cell value, CNS (CNS subpanel [4]): -60.59%
average growth cell value, Melanoma (Melanoma subpanel [5]): -56.62%
average growth cell value, Ovarian (Ovarian subpanel [6]): -28.29%
average growth cell value, Renal (Renal subpanel [7]): -40.11%
average growth cell value, Prostate (Prostate subpanel [8]): -28.10%
average growth cell value, Breast (Breast subpanel [9]): -25.05%
behaviour in OVCAR‐5 (OVCAR‐5): cytotoxic activity
GI50 (Leukemia subpanel [10]; read-out: Mean GI50 Leukemia): 1.87 µM
CC50 (Leukemia subpanel [10]; read-out: Mean LC50 Leukemia): > 100 µM
GI50 [11]: 1.56 µM
GI50 (Colon subpanel [12]; read-out: Mean GI50 Colon): 1.91 µM
CC50 (Colon subpanel [12]; read-out: Mean LC50 Colon): 27.6 µM
GI50 (CNS subpanel [13]): 1.8 µM
GI50 (Melanoma subpanel [14]): 1.44 µM
GI50 (Ovarian subpanel [15]): 1.94 µM
GI50 (Renal subpanel [16]): 1.92 µM
GI50 (Prostate subpanel [17]; read-out: Mean GI50 Prostate): 1.65 µM
CC50 (Prostate subpanel [17]; read-out: Mean LC50 Prostate): 53.2 µM
GI50 (Breast subpanel [18]): 1.72 µM
cytotoxicity against OVCAR‐5 [19]: remarkable cytotoxicity
IC50 (L. major promastigotes [20]): 26.5 ± 3.69 µM
IC50 [21]: 28.6 ± 2.4 µM

CCCCCCCCCCCCCCCCOP(=O)([O-])OCC[N+](C)(C)C [Miltefosine, miltefosine]
IC50 (L. major promastigotes [22]): 66.6 ± 11.6 µM
IC50 [23]: 31.9 ± 2.3 µM
CC50 (THP‐1 cells): 13.3 ± 2.8 µM

NC[C@@H]1O[C@H](O[C@H]2[C@@H](O)[C@H](O[C@@H]3[C@@H](O)[C@H](N)C[C@H](N)[C@H]3O[C@H]3O[C@H](CO)[C@@H](O)[C@H](O)[C@H]3N)O[C@@H]2CO)[C@H](N)[C@@H](O)[C@@H]1O [Paromomycin, paromomycin]
IC50 (L. major promastigotes [22]): 71 ± 3.3 µM
IC50 [23]: 18 ± 1 µM
CC50 (THP‐1 cells): 39 ± 13.7 µM

O=C1[O][Pt]2([NH][C@@H]3CCCC[C@H]3[NH]2)[O]C1=O [oxaliplatin]
GI50 [24]: 2.8 µM

O=c1[nH]cc(F)c(=O)[nH]1 [5‐fluorouracil]
GI50 [24]: 18 µM

COc1cc2ncnc(Nc3ccc(F)c(Cl)c3)c2cc1OCCCN1CCOCC1 [gefitinib]
GI50 [24]: 3.2 µM
